Measured values from patent publication US6472348B1, “Pyridone derivatives and herbicides” (Kumiai Chemical Industry Co., Ltd., priority 1996, dated 2002).

How the values were obtained:
slender amaranth (Am) [1] = test: Test Example 4: crop plant selectivity by upland field soil treatment (cotton), herbicidal effects; type: in vivo; parameters: scale not given here; settings: dose 6.3 g ai/10 a, evaluated 21st day after application
In short: (§1)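 Upland soil-treatment selectivity test: scoring on day 21 post-application in a greenhouse, rating crop phytotoxicity on cotton and herbicidal effect on co-sown weeds. Seeds were sown in sand-filled pots and covered with soil before treatment.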

green foxtail (Se) [2] = test: as above; type: in vivo; parameters: scale not given here; settings: dose 6.3 g ai/10 a, evaluated 21st day after application
In short: as §1

China jute (Ab) [3] = test: as above; type: in vivo; parameters: scale not given here; settings: dose 6.3 g ai/10 a, evaluated 21st day after application
In short: as §1

[4] = system: common lambsquarters (Ch); test: as above; type: in vivo; parameters: scale not given here; settings: dose 6.3 g ai/10 a, evaluated 21st day after application
In short: as §1

pale smartweed (Po) [5] = test: as above; type: in vivo; parameters: scale not given here; settings: dose 6.3 g ai/10 a, evaluated 21st day after application
In short: as §1

slender amaranth (Am) [6] = test: Test Example 9: crop plant selectivity by upland field foliage treatment (wheat), herbicidal effects; type: in vivo; parameters: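 grade of growth control; 5 = at least 90%; 4 = 70 to 90%; 3 = 50 to 70%; 2 = 30 to 50%; 1 = 10 to 30%; 0 = under 10%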; settings: dose 1.6 g ai/10a, 14th day after treatment
In short: (§2)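 Wheat and weeds sown in sand-filled pots, grown 2 weeks in a greenhouse, then foliage-treated. Herbicidal effect and crop phytotoxicity were scored 14 days after treatment against a rating scale.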

China jute (Ab) [7] = test: as above; type: in vivo; parameters: scale not given here; settings: dose 1.6 g ai/10a, 14th day after treatment
In short: as §2

[8] = system: common lambsquarters (Ch); test: as above; type: in vivo; parameters: scale not given here; settings: dose 1.6 g ai/10a, 14th day after treatment
In short: as §2

pale smartweed (Po) [9] = test: as above; type: in vivo; parameters: scale not given here; settings: dose 1.6 g ai/10a, 14th day after treatment
In short: as §2

corn (Ze) = test: Test Example 11: crop plant selectivity by upland field foliage treatment (corn), phytotoxicity; settings: dose 1.6 g ai/10a
In short: (§3)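 Corn and the weed species were sown together in sand-filled pots and grown in a greenhouse for 2 weeks before foliar treatment. Herbicidal effect was scored on day 14 after treatment against a graded standard scale, with corn phytotoxicity scored alongside.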

Diaitaria ciliaris (Di) = test: Test Example 3: herbicidal effects by upland field foliage treatment; type: in vivo; parameters: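 grade of growth control; 5 = at least 90%; 4 = 70 to 90%; 3 = 50 to 70%; 2 = 30 to 50%; 1 = 10 to 30%; 0 = under 10%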
In short: (§4)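 Scoring used a standard effect scale on the 14th day post-treatment, with plants held in a greenhouse throughout. Foliar application was made to weeds raised from seed in sand-filled pots for 2 weeks.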

slender amaranth (Am) [10] = test: as above; type: in vivo; parameters: scale not given here
In short: as §4

rice flatsedge (Ci) [11] = test: as above; type: in vivo; parameters: scale not given here
In short: as §4

barnyardgrass (Ec) [12] = test: as above; type: in vivo; parameters: scale not given here
In short: as §4

[13] = system: common lambsquarters (Ch); test: as above; type: in vivo; parameters: scale not given here
In short: as §4

pale smartweed (Po) [14] = test: as above; type: in vivo; parameters: scale not given here
In short: as §4

slender amaranth (Am) [15] = test: Test Example 11: crop plant selectivity by upland field foliage treatment (corn), herbicidal effects; type: in vivo; parameters: scale not given here; settings: dose 1.6 g ai/10a
In short: as §3

China jute (Ab) [16] = test: as above; type: in vivo; parameters: scale not given here; settings: dose 1.6 g ai/10a
In short: as §3

[17] = system: common lambsquarters (Ch); test: as above; type: in vivo; parameters: scale not given here; settings: dose 1.6 g ai/10a
In short: as §3

pale smartweed (Po) [18] = test: as above; type: in vivo; parameters: scale not given here; settings: dose 1.6 g ai/10a
In short: as §3

slender amaranth (Am) [19] = test: Test Example 2: herbicidal effects by upland field soil treatment; type: in vivo; settings: 100 g of the active ingredient per 10 ares, evaluated on the 21st day after application;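 also: grade of growth control; 5 = at least 90%; 4 = 70 to 90%; 3 = 50 to 70%; 2 = 30 to 50%; 1 = 10 to 30%; 0 = under 10%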
Excerpt: (§5) (Test on Herbicidal Effects by Upland Field Soil Treatment)

Digitaria ciliaris (Di) = test: as above; type: in vivo; settings: 100 g of the active ingredient per 10 ares, evaluated on the 21st day after application;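 also: grade of growth control; 5 = at least 90%; 4 = 70 to 90%; 3 = 50 to 70%; 2 = 30 to 50%; 1 = 10 to 30%; 0 = under 10%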
Excerpt: as §5

rice flatsedge (Ci) [20] = test: as above; type: in vivo; settings: 100 g of the active ingredient per 10 ares, evaluated on the 21st day after application
Excerpt: as §5

barnyardgrass (Ec) [21] = test: as above; type: in vivo; settings: 100 g of the active ingredient per 10 ares, evaluated on the 21st day after application
Excerpt: as §5

[22] = system: common lambsquarters (Ch); test: as above; type: in vivo; settings: 100 g of the active ingredient per 10 ares, evaluated on the 21st day after application
Excerpt: as §5

pale smartweed (Po) [23] = test: as above; type: in vivo; settings: 100 g of the active ingredient per 10 ares, evaluated on the 21st day after application
Excerpt: as §5

monochoria (Mo) = test: Test Example 1: herbicidal effects by paddy field soil treatment; type: in vivo; settings: 100 g of the active ingredient per 10 ares, 21st day after the application, index 0-5 of Table 47;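 also: grade of growth control; 5 = at least 90%; 4 = 70 to 90%; 3 = 50 to 70%; 2 = 30 to 50%; 1 = 10 to 30%; 0 = under 10%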
In short: (§6)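 Flooded paddy-soil pots (3 cm water) sown after puddling/leveling; treatment 100 g a.i./10 ares; greenhouse culture; herbicidal effect rated visually on a scoring scale at 21 d post-application.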

barnyardgrass (Ec) [24] = test: as above; type: in vivo; settings: 100 g of the active ingredient per 10 ares, 21st day after the application, index 0-5 of Table 47
In short: as §6

bulrush (Sc) = test: as above; type: in vivo; settings: 100 g of the active ingredient per 10 ares, 21st day after the application, index 0-5 of Table 47;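 also: grade of growth control; 5 = at least 90%; 4 = 70 to 90%; 3 = 50 to 70%; 2 = 30 to 50%; 1 = 10 to 30%; 0 = under 10%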
In short: as §6

soybean (Gl) = test: Test Example 6: crop plant selectivity by upland field soil treatment (soybean), phytotoxicity; type: in vivo; parameters: scale not given here; settings: dose 6.3 g ai/10a, 21st day after application
In short: (§7)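 Pre-emergence soil treatment; sand-filled pots, seeds sown then soil-covered; greenhouse culture; visual rating of weed control and soybean injury on day 21 post-application per standard scale.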

cotton (Go) = test: Test Example 4: crop plant selectivity by upland field soil treatment (cotton), phytotoxicity; type: in vivo; parameters: scale not given here; settings: dose 6.3 g ai/10 a, evaluated 21st day after application
In short: as §1

wheat (Tr) = test: Test Example 9: crop plant selectivity by upland field foliage treatment (wheat), phytotoxicity; settings: dose 1.6 g ai/10a, 14th day after treatment
In short: as §2

slender amaranth (Am) [25] = test: Test Example 6: crop plant selectivity by upland field soil treatment (soybean), herbicidal effects; type: in vivo; parameters: scale not given here; settings: dose 6.3 g ai/10a, 21st day after application
In short: as §7

green foxtail (Se) [26] = test: as above; type: in vivo; parameters: scale not given here; settings: dose 6.3 g ai/10a, 21st day after application
In short: as §7

China jute (Ab) [27] = test: as above; type: in vivo; parameters: scale not given here; settings: dose 6.3 g ai/10a, 21st day after application
In short: as §7

[28] = system: common lambsquarters (Ch); test: as above; type: in vivo; parameters: scale not given here; settings: dose 6.3 g ai/10a, 21st day after application
In short: as §7

pale smartweed (Po) [29] = test: as above; type: in vivo; parameters: scale not given here; settings: dose 6.3 g ai/10a, 21st day after application
In short: as §7

[30] = upland field foliage treatment, 14th day after treatment
[31] = 100 g of the active ingredient per 10 ares, evaluated on the 14th day after treatment
[32] = upland field foliage treatment (corn test), 14th day after treatment
[33] = 100 g active ingredient per 10 ares, evaluated 14th day after treatment

Structure (SMILES)	Herbicidal effects Am (slender amaranth (Am) [6])	Herbicidal effects Ab (China jute (Ab) [7])	Herbicidal effects Ch [8]	Herbicidal effects Po (pale smartweed (Po) [9])	Phytotoxicity Ze (corn (Ze); [30])	Herbicidal effects Am (slender amaranth (Am) [15]; [32])	Herbicidal effects Ab (China jute (Ab) [16]; [32])	Herbicidal effects Ch [17, 32]	Herbicidal effects Po (pale smartweed (Po) [18]; [32])	Herbicidal effects Am (slender amaranth (Am) [19])	Herbicidal effects Di (Digitaria ciliaris (Di))	Herbicidal effects Ci (rice flatsedge (Ci) [20])	Herbicidal effects Ec (barnyardgrass (Ec) [21])	Herbicidal effects Ch [22]	Herbicidal effects Po (pale smartweed (Po) [23])	Herbicidal effects Mo (monochoria (Mo))	Herbicidal effects Ec (barnyardgrass (Ec) [24])	Herbicidal effects Sc (bulrush (Sc))	Phytotoxicity Tr (wheat (Tr))	Herbicidal effects Di (Diaitaria ciliaris (Di); [33])	also measured
COCCOc1cc(-c2ccc(C(F)(F)F)n(C)c2=O)c(F)cc1Cl [1-170]	5	5	5	5	0	5	5	5	5	5	5	5	5	5	5	5	5	5	1	–	Herbicidal effects Am (slender amaranth (Am) [1]): 5; Herbicidal effects Se (green foxtail (Se) [2]): 5; Herbicidal effects Ab (China jute (Ab) [3]): 5; Herbicidal effects Ch [4]: 5; Herbicidal effects Po (pale smartweed (Po) [5]): 5; Herbicidal effects Di (Diaitaria ciliaris (Di); [31]): 5; Herbicidal effects Am (slender amaranth (Am) [10]; [31]): 5; Herbicidal effects Ci (rice flatsedge (Ci) [11]; [31]): 5; Herbicidal effects Ec (barnyardgrass (Ec) [12]; [31]): 5; Herbicidal effects Ch [13, 31]: 5; Herbicidal effects Po (pale smartweed (Po) [14]; [31]): 5; Phytotoxicity Gl (soybean (Gl)): 2; Phytotoxicity Go (cotton (Go)): 1; Herbicidal effects Am (slender amaranth (Am) [25]): 5; Herbicidal effects Se (green foxtail (Se) [26]): 5; Herbicidal effects Ab (China jute (Ab) [27]): 5; Herbicidal effects Ch [28]: 5; Herbicidal effects Po (pale smartweed (Po) [29]): 5
C=CCn1c(=O)sc2cc(F)c(-c3ccc(C(F)(F)F)n(C)c3=O)cc21 [Compound 3-5]	5	5	5	5	2	5	5	5	5	5	5	5	5	5	5	5	5	5	1	5	Herbicidal effects Am (slender amaranth (Am) [10]; [33]): 5; Herbicidal effects Ci (rice flatsedge (Ci) [11]; [33]): 5; Herbicidal effects Ec (barnyardgrass (Ec) [12]; [33]): 5; Herbicidal effects Ch [13, 33]: 5; Herbicidal effects Po (pale smartweed (Po) [14]; [33]): 5
Cn1c(C(F)(F)F)ccc(-c2cc3c(cc2F)sc(=O)n3C)c1=O [Compound 3-6]	5	5	5	5	2	5	5	5	5	5	5	5	5	5	5	5	5	5	2	5	Herbicidal effects Am (slender amaranth (Am) [10]; [33]): 5; Herbicidal effects Ci (rice flatsedge (Ci) [11]; [33]): 5; Herbicidal effects Ec (barnyardgrass (Ec) [12]; [33]): 5; Herbicidal effects Ch [13, 33]: 5; Herbicidal effects Po (pale smartweed (Po) [14]; [33]): 5
CCCc1cc2c(Cl)cc(F)c(-c3ccc(C(F)(F)F)n(C)c3=O)c2o1 [Compound 5-3]	5	5	5	5	–	–	–	–	–	5	5	5	5	5	5	5	5	5	1	5	Phytotoxicity Ze (corn (Ze); corn, foliage treatment, evaluated on 14th day after treatment, index per Table 47): 2; Herbicidal effects Am (slender amaranth (Am) [10]; [33]): 5; Herbicidal effects Ci (rice flatsedge (Ci) [11]; [33]): 5; Herbicidal effects Ec (barnyardgrass (Ec) [12]; [33]): 5; Herbicidal effects Ch [13, 33]: 5; Herbicidal effects Po (pale smartweed (Po) [14]; [33]): 5; Herbicidal effects Am (slender amaranth (Am) [15]; slender amaranth, foliage treatment, evaluated on 14th day after treatment, index per Table 47): 5; Herbicidal effects Ab (China jute (Ab) [16]; China jute, foliage treatment, evaluated on 14th day after treatment, index per Table 47): 5; Herbicidal effects Ch ([17]; common lambsquarters, foliage treatment, evaluated on 14th day after treatment, index per Table 47): 5; Herbicidal effects Po (pale smartweed (Po) [18]; pale smartweed, foliage treatment, evaluated on 14th day after treatment, index per Table 47): 5
